# Literature values as cited in PMC2409929 (British Journal of Cancer, 2004).
# Marks after values point to notes of the source that are not given here.
# Tests used:
# topo-isomerase I = test system: topo-isomerase I; set-up: method as in Slatter et al, 1997; conditions: in vitro models; ref Slatter et al, 1997; cited from earlier work
# [1] = N=6, mean±s.d., ref 16 (Herben et al, 1999), cited from earlier work
# [2] = after irinotecan 140 mg m^−2: 10 mg m^−2 as 14-day prolonged infusions
compound,measurement,setting,value
"CCc1c2c(nc3ccc(O)cc13)-c1cc3c(c(=O)n1C2)COC(=O)[C@]3(O)CC [SN-38, 7-ethyl-10-hydroxycamptothecin]",Potency as topo-isomerase I inhibitor relative to parent compound (irinotecan),topo-isomerase I,100–1000 times
same,Metabolic ratio (SN-38 AUC over irinotecan AUC),[1]; 140 mg m^−2: 10 mg m^−2 irinotecan as 14-day prolonged infusions,0.12±0.02 ^b
same,SN-38 AUC,[1]; [2],1.4 ± 0.3 µM·h
same,SN-38 AUCc (AUC per cycle),[1]; [2],4.2 ± 0.9 µM·h
